According to the supplement of paper PMC10307832:

What was measured:
Assay in all cases: relative viability (nuclei count vs DMSO), 5 days (fraction); higher = more cells survive
[1] = tested on: A-427
Method in brief: (§1)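 The day after seeding in 1536-well plates, lung cancer cell lines were treated by pin tool with a single drug, or with a fixed anchor-drug dose together with five library-drug doses (not always all listed) in √10 steps. After 5 days, a combined fix-and-stain solution (final 0.05% Triton X-100, 1% formaldehyde, 1 ug/ml Hoechst) was added. Nuclei counted on 4× images gave relative viability as treated counts over vehicle counts, reported as the median of duplicate plates.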

[2] = tested on: HCC-366
Method in brief: as §1

[3] = tested on: HCC-827
Method in brief: as §1

[4] = tested on: LC-2-ad
Method in brief: as §1

[5] = tested on: LCLC-103H
Method in brief: as §1

[6] = tested on: NCI-H1355
Method in brief: as §1

[7] = tested on: NCI-H1734
Method in brief: as §1

[8] = tested on: NCI-H1755
Method in brief: as §1

[9] = tested on: NCI-H1915
Method in brief: as §1

[10] = tested on: NCI-H1975
Method in brief: as §1

[11] = tested on: NCI-H1993
Method in brief: as §1

[12] = tested on: NCI-H2170
Method in brief: as §1

[13] = tested on: NCI-H2228
Method in brief: as §1

[14] = tested on: NCI-H2342
Method in brief: as §1

[15] = tested on: NCI-H2347
Method in brief: as §1

[16] = tested on: NCI-H23
Method in brief: as §1

[17] = tested on: NCI-H650
Method in brief: as §1

[18] = tested on: RERF-LC-KJ
Method in brief: as §1

[19] = tested on: SK-LU-1
Method in brief: as §1

[20] = tested on: SK-MES-1
Method in brief: as §1

[21] = tested on: SW 1573
Method in brief: as §1

[22] = tested on: UMC-11
Method in brief: as §1

Question: How did the relative viability ([1]; first compound 0.02 µM) turn out when CN1CCN(CCOc2cc(OC3CCOCC3)c3c(Nc4c(Cl)ccc5c4OCO5)ncnc3c2)CC1 [Saracatinib] + COc1cc2c(Oc3ccc(NC(=O)C4(C(=O)Nc5ccc(F)cc5)CC4)cc3F)ccnc2cc1OCCCN1CCOCC1 [Foretinib] (partner 0.25 µM) was run?
Answer: The relative viability was 1.09.

Question: What about the relative viability ([1]; first compound 0.2 µM) of the same molecule?
Answer: Its relative viability is 1.09.

Question: And the relative viability ([1]; first compound 0.6325 µM)?
Answer: The relative viability was 1.07.

Question: And the relative viability ([1]; first compound 2 µM)?
Answer: The relative viability was 0.99.

Question: And the relative viability ([2]; first compound 0.02 µM)?
Answer: Its relative viability is 0.896.

Question: What about the relative viability ([2]; first compound 0.6325 µM) of the same molecule?
Answer: The relative viability was 0.844.

Question: What about the relative viability ([2]; first compound 2 µM) of the same molecule?
Answer: Its relative viability is 0.531.

Question: What about the relative viability ([3]; first compound 0.02 µM) of the same molecule?
Answer: Its relative viability is 1.08.

Question: And the relative viability ([3]; first compound 0.2 µM)?
Answer: The relative viability was 0.452.

Question: What about the relative viability ([3]; first compound 0.6325 µM) of the same molecule?
Answer: The relative viability was 0.193.

Question: And the relative viability ([3]; first compound 2 µM)?
Answer: The relative viability was 0.17.

Question: And the relative viability ([4]; first compound 0.02 µM)?
Answer: The relative viability was 0.85.

Question: And the relative viability ([4]; first compound 0.2 µM)?
Answer: The relative viability was 0.812.

Question: What about the relative viability ([4]; first compound 0.6325 µM) of the same molecule?
Answer: The relative viability was 0.934.

Question: What about the relative viability ([4]; first compound 2 µM) of the same molecule?
Answer: The relative viability was 0.658.

Question: And the relative viability ([5]; first compound 0.02 µM)?
Answer: The relative viability was 0.698.

Question: What about the relative viability ([5]; first compound 0.2 µM) of the same molecule?
Answer: The relative viability was 0.669.

Question: And the relative viability ([5]; first compound 0.6325 µM)?
Answer: Its relative viability is 0.742.

Question: And the relative viability ([5]; first compound 2 µM)?
Answer: The relative viability was 0.572.

Question: And the relative viability ([6]; first compound 0.02 µM)?
Answer: The relative viability was 0.965.

Question: And the relative viability ([6]; first compound 0.2 µM)?
Answer: Its relative viability is 0.991.

Question: And the relative viability ([6]; first compound 0.6325 µM)?
Answer: The relative viability was 1.1.

Question: What about the relative viability ([6]; first compound 2 µM) of the same molecule?
Answer: The relative viability was 0.934.

Question: What about the relative viability ([7]; first compound 0.02 µM) of the same molecule?
Answer: The relative viability was 0.852.

Question: What about the relative viability ([7]; first compound 0.6325 µM) of the same molecule?
Answer: The relative viability was 0.805.

Question: What about the relative viability ([7]; first compound 2 µM) of the same molecule?
Answer: Its relative viability is 0.605.

Question: What about the relative viability ([8]; first compound 0.02 µM) of the same molecule?
Answer: Its relative viability is 0.936.

Question: And the relative viability ([8]; first compound 0.2 µM)?
Answer: Its relative viability is 0.849.

Question: And the relative viability ([8]; first compound 0.6325 µM)?
Answer: The relative viability was 0.821.

Question: And the relative viability ([8]; first compound 2 µM)?
Answer: The relative viability was 0.792.

Question: What about the relative viability ([9]; first compound 0.02 µM) of the same molecule?
Answer: The relative viability was 1.05.

Question: And the relative viability ([9]; first compound 0.2 µM)?
Answer: The relative viability was 1.05.

Question: What about the relative viability ([9]; first compound 0.6325 µM) of the same molecule?
Answer: The relative viability was 1.12.

Question: And the relative viability ([9]; first compound 2 µM)?
Answer: Its relative viability is 0.96.

Question: And the relative viability ([10]; first compound 0.02 µM)?
Answer: The relative viability was 0.956.

Question: What about the relative viability ([10]; first compound 0.2 µM) of the same molecule?
Answer: Its relative viability is 0.85.

Question: What about the relative viability ([10]; first compound 0.6325 µM) of the same molecule?
Answer: Its relative viability is 0.96.

Question: And the relative viability ([10]; first compound 2 µM)?
Answer: Its relative viability is 0.631.

Question: What about the relative viability ([11]; first compound 0.02 µM) of the same molecule?
Answer: The relative viability was 0.692.

Question: What about the relative viability ([11]; first compound 0.2 µM) of the same molecule?
Answer: The relative viability was 0.625.

Question: What about the relative viability ([11]; first compound 0.6325 µM) of the same molecule?
Answer: Its relative viability is 0.696.

Question: What about the relative viability ([11]; first compound 2 µM) of the same molecule?
Answer: The relative viability was 0.552.

Question: What about the relative viability ([12]; first compound 0.02 µM) of the same molecule?
Answer: The relative viability was 0.989.

Question: And the relative viability ([12]; first compound 0.2 µM)?
Answer: The relative viability was 0.705.

Question: What about the relative viability ([12]; first compound 0.6325 µM) of the same molecule?
Answer: The relative viability was 1.03.

Question: And the relative viability ([12]; first compound 2 µM)?
Answer: The relative viability was 0.872.

Question: And the relative viability ([13]; first compound 0.02 µM)?
Answer: The relative viability was 0.765.

Question: And the relative viability ([13]; first compound 0.2 µM)?
Answer: The relative viability was 0.733.

Question: What about the relative viability ([13]; first compound 0.6325 µM) of the same molecule?
Answer: Its relative viability is 0.873.

Question: What about the relative viability ([13]; first compound 2 µM) of the same molecule?
Answer: The relative viability was 0.591.

Question: What about the relative viability ([14]; first compound 0.02 µM) of the same molecule?
Answer: Its relative viability is 0.84.

Question: What about the relative viability ([14]; first compound 0.2 µM) of the same molecule?
Answer: Its relative viability is 0.856.

Question: What about the relative viability ([14]; first compound 0.6325 µM) of the same molecule?
Answer: The relative viability was 1.11.

Question: What about the relative viability ([14]; first compound 2 µM) of the same molecule?
Answer: Its relative viability is 0.925.

Question: What about the relative viability ([15]; first compound 0.02 µM) of the same molecule?
Answer: Its relative viability is 1.32.

Question: What about the relative viability ([15]; first compound 0.2 µM) of the same molecule?
Answer: Its relative viability is 0.852.

Question: What about the relative viability ([15]; first compound 0.6325 µM) of the same molecule?
Answer: Its relative viability is 0.469.

Question: What about the relative viability ([15]; first compound 2 µM) of the same molecule?
Answer: Its relative viability is 0.712.

Question: And the relative viability ([16]; first compound 0.02 µM)?
Answer: Its relative viability is 0.825.

Question: And the relative viability ([16]; first compound 0.2 µM)?
Answer: Its relative viability is 0.815.

Question: And the relative viability ([16]; first compound 0.6325 µM)?
Answer: The relative viability was 1.

Question: And the relative viability ([16]; first compound 2 µM)?
Answer: Its relative viability is 0.545.

Question: And the relative viability ([17]; first compound 0.02 µM)?
Answer: Its relative viability is 0.996.

Question: And the relative viability ([17]; first compound 0.2 µM)?
Answer: Its relative viability is 0.922.

Question: What about the relative viability ([17]; first compound 0.6325 µM) of the same molecule?
Answer: Its relative viability is 1.03.

Question: And the relative viability ([17]; first compound 2 µM)?
Answer: The relative viability was 1.03.

Question: What about the relative viability ([18]; first compound 0.02 µM) of the same molecule?
Answer: Its relative viability is 0.895.

Question: What about the relative viability ([18]; first compound 0.2 µM) of the same molecule?
Answer: Its relative viability is 0.855.

Question: And the relative viability ([18]; first compound 0.6325 µM)?
Answer: Its relative viability is 0.917.

Question: What about the relative viability ([18]; first compound 2 µM) of the same molecule?
Answer: Its relative viability is 0.877.

Question: What about the relative viability ([19]; first compound 0.02 µM) of the same molecule?
Answer: Its relative viability is 0.602.

Question: What about the relative viability ([19]; first compound 0.2 µM) of the same molecule?
Answer: Its relative viability is 0.51.

Question: And the relative viability ([19]; first compound 0.6325 µM)?
Answer: Its relative viability is 0.415.

Question: And the relative viability ([19]; first compound 2 µM)?
Answer: The relative viability was 0.298.

Question: And the relative viability ([20]; first compound 0.02 µM)?
Answer: Its relative viability is 0.94.

Question: What about the relative viability ([20]; first compound 0.2 µM) of the same molecule?
Answer: Its relative viability is 0.772.

Question: What about the relative viability ([20]; first compound 0.6325 µM) of the same molecule?
Answer: The relative viability was 0.798.

Question: What about the relative viability ([20]; first compound 2 µM) of the same molecule?
Answer: The relative viability was 0.533.

Question: What about the relative viability ([21]; first compound 0.02 µM) of the same molecule?
Answer: Its relative viability is 0.895.

Question: What about the relative viability ([21]; first compound 0.2 µM) of the same molecule?
Answer: The relative viability was 0.711.

Question: What about the relative viability ([21]; first compound 0.6325 µM) of the same molecule?
Answer: The relative viability was 1.14.

Question: And the relative viability ([21]; first compound 2 µM)?
Answer: Its relative viability is 0.792.

Question: And the relative viability ([22]; first compound 0.02 µM)?
Answer: Its relative viability is 0.977.

Question: What about the relative viability ([22]; first compound 0.6325 µM) of the same molecule?
Answer: Its relative viability is 0.982.

Question: And the relative viability ([22]; first compound 2 µM)?
Answer: Its relative viability is 0.734.
